Measurements from PMC12802961 (Journal of Antimicrobial Chemotherapy, 2025).
Values joined by “and” are separate entries in the source; they are usually repeats but may differ in a detail not shown here. Equal entries are not always repeated. Marks after values point to notes of the source that are not given here.

Tests used:
[1] = Single-dose plasma pharmacokinetics, s.c., infected neutropenic mice
Method: All animal procedures were carried out in the Animal Facility for Medical and Scientific Purposes of the University General Hospital Attikon (EL 25 BIO 014), Athens, Greece. […] Outbred female CD-1 mice, obtained by the Hellenic Pasteur Institute, Greece, and Charles River Laboratories Models and Services, Germany, were used at the age of 7–8 weeks, weighing 20–25 g. The animals were allowed to acclimatize for at least 5 days upon arrival and were housed under standard conditions with water and food supplied ad libitum. […] Infection was induced (Day 0) by intramuscular injection of 0.05 mL bacterial inoculum of approximately 10^5–10^6 cfu/thigh.
The dose was administered s.c. (0.1 mL) 2 h after infection (t = 0 h). Blood samples were collected in 1 mL K3EDTA tubes through orbital sinus bleeding under isoflurane anaesthesia. Animals were immediately euthanized through cervical dislocation and blood samples taken at timepoints 0, 0.08, 0.25, 0.5, 0.75, 1, 1.5, 2, 3, 4, 6, and 8 h after single dose injection. Blood samples were centrifuged immediately after collection in a pre-cooled centrifuge, and plasma was stored at −80°C. For each timepoint two animals were euthanized in order to have duplicates for each condition.
The Cmax values were calculated from raw data and the AUCs were calculated using the trapezoidal rule. […] Equations used in the program were the classical polyexponential equations Ci(t) = PolyExp(i, n, t), where i = number of the compartments, n = number of doses and t = time from last dose (http://www.boomer.org/c/p4/c19/c19.pdf). The %fT > Ct was then determined using a bisectional rootfinder for intersections between simulated curve and concentration, and calculating the difference between intersection values. Free drug concentrations were used in all calculations.
For taniborbactam, a population pharmacokinetic model was developed using nonlinear mixed-effects modelling (NONMEM). The analysis was performed on the natural logarithm of the concentrations using the FOCE method with INTERACTION. All mice were assumed to weigh 1kg, resulting in PK parameters corresponding to a per kg base. […] Tools used to evaluate and visualize the model were RStudio (v0.98.1049), R (v3.1.2), XPose (v4.5.3) and PsN (v4.6.0), all with the graphical interface Pirana (v2.9.0).
To determine the structural pharmacokinetic model 1-, 2- and 3-compartment models were tested. Pharmacokinetic parameters were estimated in terms of central and peripheral volume of distribution (Vc and Vp), clearance (CL), and intercompartmental clearance (Q). Addition of interindividual variability (IPV), described using an exponential eta model, was evaluated for each pharmacokinetic parameter. The covariance between values for IPV was estimated using a […] matrix. Residual variability between observed and predicted plasma concentrations was described using an additional error model for logarithmically transformed data. The minimum value of objective function (OFV) was used as a criterion for model selection. […] Model adequacy was further evaluated by using various residual plots (‘goodness-of-fit’ plots) and values of random effects in variances. In the second step relationships between pharmacokinetic parameters and potential covariates were investigated. […] Dose covariates were modelled by using an exponential model, place of infection was modelled proportionally. Criteria for the inclusion of covariates in the model were the OFV, results of graphical evaluation of the parameter-covariate relationship and the decrease in parameter variability.
Three procedures were used to validate the final model. As an internal validation method, a bootstrap resampling method was used. Bootstrap datasets (n=1000) were generated by sampling randomly from the original dataset with replacement. Parameters were estimated for each of the replicate datasets using the developed model.

[2] = tested on: MBL- and ESBL-producing isolates; details: cited from earlier work
[3] = human, in vivo; cited from earlier work
[4] = in vivo
E. coli 52 = experiment: Neutropenic murine thigh infection model; format: in vivo, Escherichia coli
Method: (§1) All dosing regimens were performed in at least two animals per dosing regimen.
(§2) At t = 0 h, 2 h after infection, two mice were humanely euthanized to determine the initial number of cfu/thigh just before treatment. […] Subsequently, thighs were homogenized using the Ultra-Turrax homogenizer (IKA Labortechnik, Germany). For each thigh 10-fold dilution series were prepared and 3 × 10 µL per dilution were plated (Chromagar, bioMérieux, NL). The following day, colonies were counted and the number of cfu/thigh was calculated.
(§3) Free drug concentrations were used in all calculations.

[5] = Protein binding, equilibrium dialysis chamber, LC-MS/MS; format: in vitro ADME
Source text: […]. […] […].
. […] Free drug concentrations were used in all calculations. […]

K. pneumoniae 59 = experiment: Neutropenic murine thigh infection model; format: in vivo, Klebsiella pneumoniae
Method: as §1, §2, §3

[6] = tested on: AmpC constitutively-producing P. aeruginosa; details: cited from earlier work
[7] = taniborbactam, two-compartment model
[8] = + cefepime q2h 4 mg/kg, Ct 0.015 mg/L
[9] = + cefepime q2h 4 mg/kg, Ct 0.03 mg/L
[10] = + cefepime q2h 4 mg/kg, Ct 0.06 mg/L
[11] = + cefepime q2h 4 mg/kg, Ct 0.125 mg/L
[12] = + cefepime q2h 4 mg/kg, Ct 0.25 mg/L
[13] = + cefepime q2h 4 mg/kg, Ct 0.5 mg/L
[14] = + cefepime q2h 4 mg/kg, Ct 1 mg/L
[15] = + cefepime q2h 4 mg/kg, Ct 2 mg/L
[16] = + cefepime q2h 4 mg/kg, Ct 4 mg/L
[17] = taniborbactam q2h + cefepime q2h 4 mg/kg

NCCN[C@H]1CC[C@H](CC(=O)N[C@H]2Cc3cccc(C(=O)O)c3OB2O)CC1 [taniborbactam, Taniborbactam]
Absorption rate (h-1), Bootstrap ([1]; 772 successful bootstrap runs): 20 h⁻¹ | Central volume of distribution (L/Kg), Bootstrap median (95-percentile range) ([1]; 772 successful bootstrap runs): 0.63 (0.58-0.68) L/Kg | Clearance (L/h/Kg), Bootstrap median (95-percentile range) ([1]; 772 successful bootstrap runs): 1.49 (1.23-1.57) L/h/Kg | IPV (%) on clearance, Bootstrap median (95-percentile range) ([1]; 772 successful bootstrap runs): 14 (8-19) % | IPV (%) on intercompartmental clearance, Bootstrap median (95-percentile range) ([1]; 772 successful bootstrap runs): 59 (40-77) % | Intercompartmental clearance (L/h), Bootstrap median (95-percentile range) ([1]; 772 successful bootstrap runs): 0.11 (0.08-0.35) L/h | Peripheral volume of distribution (L/Kg), Bootstrap median (95-percentile range) ([1]; 772 successful bootstrap runs): 0.94 (0.46-13.0) L/Kg | t1/2a ([1]; central compartment, estimated): 17.6 min | IPV (%) on clearance, Estimation, value (RSE) ([1]; interindividual variability of CL): 14.2 (14%) | IPV (%) on intercompartmental clearance, Estimation, value (RSE) ([1]; interindividual variability of Q): 60.7 (13%) | t1/2b ([1]; peripheral compartment, estimated): 45 min | Central volume of distribution (L/Kg), Estimation, value (RSE) ([1]; population PK model (NONMEM)): 0.628 (4%) L/Kg | Clearance (L/h/Kg), Estimation, value (RSE) ([1]; population PK model (NONMEM)): 1.49 (3%) L/h/Kg | Peripheral volume of distribution (L/Kg), Estimation, value (RSE) ([1]; population PK model (NONMEM)): 0.926 (1%) L/Kg | Absorption rate (h-1), Estimation ([1]; population PK model (NONMEM), fixed): 20 (fixed) h-1 | Intercompartmental clearance (L/h), Estimation, value (RSE) ([1]; population PK model (NONMEM), per kg): 0.109 (10%) L/h | Vc [1, 7]: 0.628 L/kg | volume of peripheral compartment Vp [1, 7]: 0.926 L/kg | Ka ([1]; taniborbactam, two-compartment model, fixed value): 20 h⁻¹ | Cefepime MIC reduction [2]: ≥ 2 fold | half-life [3]: 600 min | fT > Ct 8 mg/L [4]: 100% | 1 log kill: Taniborbactam %ƒT > Ct 0.015 mg/L (E. coli 52; [8]): 100% | Stasis: Taniborbactam %ƒT > Ct 0.015 mg/L (E. coli 52; [8]): 70.24% | 1 log kill: Taniborbactam %ƒT > Ct 0.03 mg/L (E. coli 52; [9]): 100% | Stasis: Taniborbactam %ƒT > Ct 0.03 mg/L (E. coli 52; [9]): 53.44% | 1 log kill: Taniborbactam %ƒT > Ct 0.06 mg/L (E. coli 52; [10]): 99.7% | Stasis: Taniborbactam %ƒT > Ct 0.06 mg/L (E. coli 52; [10]): 36.6% and 36.55% | 1 log kill: Taniborbactam %ƒT > Ct 0.125 mg/L (E. coli 52; [11]): 82.8% and 82.82% | Stasis: Taniborbactam %ƒT > Ct 0.125 mg/L (E. coli 52; [11]): 19.7% and 19.66% | 1 log kill: Taniborbactam %ƒT > Ct 0.25 mg/L (E. coli 52; [12]): 65.92% | Stasis: Taniborbactam %ƒT > Ct 0.25 mg/L (E. coli 52; [12]): 2.74% | 1 log kill: Taniborbactam %ƒT > Ct 0.5 mg/L (E. coli 52; [13]): 49.3% | Stasis: Taniborbactam %ƒT > Ct 0.5 mg/L (E. coli 52; [13]): 0% | 1 log kill: Taniborbactam %ƒT > Ct 1 mg/L (E. coli 52; [14]): 32.14% | Stasis: Taniborbactam %ƒT > Ct 1 mg/L (E. coli 52; [14]): 0% | 1 log kill: Taniborbactam %ƒT > Ct 2 mg/L (E. coli 52; [15]): 15.24% | Stasis: Taniborbactam %ƒT > Ct 2 mg/L (E. coli 52; [15]): 0% | 1 log kill: Taniborbactam %ƒT > Ct 4 mg/L (E. coli 52; [16]): 0% | Stasis: Taniborbactam %ƒT > Ct 4 mg/L (E. coli 52; [16]): 0% | 1 log kill: Taniborbactam total daily dose, mg/kg (E. coli 52; [17]): 41.8 mg/kg | Stasis: Taniborbactam total daily dose (E. coli 52; [17]): 3.20 mg/kg | Protein binding [5]: 19.6% | Stasis: Taniborbactam %ƒT > Ct 0.015 mg/L (K. pneumoniae 59; [8]): 100% | 1 log kill: Taniborbactam %ƒT > Ct 0.015 mg/L (K. pneumoniae 59; + cefepime q2h 4 mg/kg, Ct 0.015 mg/L, at extrapolated dose): 100% | Stasis: Taniborbactam %ƒT > Ct 0.03 mg/L (K. pneumoniae 59; [9]): 100% | 1 log kill: Taniborbactam %ƒT > Ct 0.03 mg/L (K. pneumoniae 59; + cefepime q2h 4 mg/kg, Ct 0.03 mg/L, at extrapolated dose): 100% | Stasis: Taniborbactam %ƒT > Ct 0.06 mg/L (K. pneumoniae 59; [10]): 86.2% | 1 log kill: Taniborbactam %ƒT > Ct 0.06 mg/L (K. pneumoniae 59; + cefepime q2h 4 mg/kg, Ct 0.06 mg/L, at extrapolated dose): 100% | Stasis: Taniborbactam %ƒT > Ct 0.125 mg/L (K. pneumoniae 59; [11]): 69.3% | 1 log kill: Taniborbactam %ƒT > Ct 0.125 mg/L (K. pneumoniae 59; + cefepime q2h 4 mg/kg, Ct 0.125 mg/L, at extrapolated dose): 100% | Stasis: Taniborbactam %ƒT > Ct 0.25 mg/L (K. pneumoniae 59; [12]): 52.4% | 1 log kill: Taniborbactam %ƒT > Ct 0.25 mg/L (K. pneumoniae 59; + cefepime q2h 4 mg/kg, Ct 0.25 mg/L, at extrapolated dose): 100% | Stasis: Taniborbactam %ƒT > Ct 0.5 mg/L (K. pneumoniae 59; [13]): 35.5% | 1 log kill: Taniborbactam %ƒT > Ct 0.5 mg/L (K. pneumoniae 59; + cefepime q2h 4 mg/kg, Ct 0.5 mg/L, at extrapolated dose): 100% | Stasis: Taniborbactam %ƒT > Ct 1 mg/L (K. pneumoniae 59; [14]): 18.6% | 1 log kill: Taniborbactam %ƒT > Ct 1 mg/L (K. pneumoniae 59; + cefepime q2h 4 mg/kg, Ct 1 mg/L, at extrapolated dose): 99.01% | Stasis: Taniborbactam %ƒT > Ct 2 mg/L (K. pneumoniae 59; [15]): 0% | 1 log kill: Taniborbactam %ƒT > Ct 2 mg/L (K. pneumoniae 59; + cefepime q2h 4 mg/kg, Ct 2 mg/L, at extrapolated dose): 83.25% | Stasis: Taniborbactam %ƒT > Ct 4 mg/L (K. pneumoniae 59; [16]): 0% | 1 log kill: Taniborbactam %ƒT > Ct 4 mg/L (K. pneumoniae 59; + cefepime q2h 4 mg/kg, Ct 4 mg/L, at extrapolated dose): 66.35% | Stasis: Taniborbactam total daily dose (K. pneumoniae 59; [17]): 24.00 mg/kg | 1 log kill: Taniborbactam total daily dose, mg/kg (K. pneumoniae 59; taniborbactam q2h + cefepime q2h 4 mg/kg, extrapolated dose, effect not reached within tested doses): (680)^b mg/kg | Reduction of cefepime MICs (fold dilution) [6]: 2 fold
